Measured values taken from patent US20150328109A1, “DERMAL COMPOSITIONS CONTAINING UNNATURAL HYGROSCOPIC AMINO ACIDS” (MEDPHARM LIMITED, priority 2012, published 2015).
Where two headings read alike, the source gives them in different places. Blank lines part the entries; values can stand above or below the molecule they belong to.

Tests used:
[1] = In vitro permeation of Acyclovir through epidermal membrane in Franz type diffusion cells after amino acid pre-treatment; type: in vitro ADME, Human; settings: maximal enhancement of the drug's permeation by amino acid pre-treatment
Experimental: (§1) Acyclovir (ACV), metronidazole and diclofenac diethylamine (DDEA) were analysed using HPLC, using of a Waters Alliance Separations Module and Waters detector. The temperature of the column and samples were maintained at 45±2° C. and 5.0±2° C., respectively. A Kinetix™ C-18 (Phenomenex, USA) column (150 mm×4.6 mm 5 μm particle size) with a guard column (Phenomenex USA, C-18 4.0×3.0 mm) was employed as the stationary phase. The mobile phase was three part; mobile phase A, water; mobile phase B, methanol; and mobile phase C, 10 mM ammonium phosphate buffer pH 2.5. The mobile phase was run using a gradient flow (Table 2) with a flow rate of 0.8 mL/min. Samples were run for 12 minutes with an injection volume of 10 μL. Acyclovir, metronidazole and DDEA were processed at a wavelength of 276 nm, with approximate retention times of 4.7, 6.5, and 8.7 min, respectively. Calibration curves were constructed from a series of standards prepared by serial dilution in conjunction with separately prepared quality controls. […] Data were recorded and analysed using Empower Pro^3 Software. […]
(§2) Three experiments were performed, one for each API (Acyclovir, metronidazole and DDEA). […] The integrity of the epidermal membrane was assessed using electrical resistance to ensure the epidermal membrane was intact. […] Samples were analysed using HPLC and the level of each API that had permeated was quantified.

[2] = In vitro permeation of diclofenac diethylamine (DDEA) through epidermal membrane in Franz type diffusion cells after amino acid pre-treatment; type: in vitro ADME, Human; settings: maximal enhancement of the drug's permeation by amino acid pre-treatment
Experimental: as §1, §2

[3] = cited from earlier work
[4] = In vitro permeation of metronidazole through epidermal membrane in Franz type diffusion cells after amino acid pre-treatment; type: in vitro ADME, Human; settings: maximal enhancement of the drug's permeation by amino acid pre-treatment
Experimental: as §1, §2

RHE tissues [5] = settings: cited from earlier work
[6] = Snake study: water uptake into snake skin after treatment with amino acid solution; set-up: species or system Elaphe guttata, the American corn snake; settings: 24 h treatment with 1.33M amino acid solution, dried, then 40% RH
[7] = Deliquescence relative humidity (DRH) of a saturated solution in a sealed vessel at 32° C.; type: physicochemical; settings: saturated solution in water (1 mL), 24 hours, mass used printed beside the name
Experimental: This experiment was to measure the deliquescence relative humidity (DRH) caused by a saturated amino acid solution in a sealed vessel at 32° C.; the lower the DRH, the greater the water holding capacity of the solution measured. Deliquescence relative humidity is the relative humidity at which the compound deliquesces, i.e. the relative humidity in which the compound absorbs so much water that it dissolves within the absorbed water.
The apparatus is maintained at 32° C. The temperature of 32° C. was chosen for being the temperature of outer stratum corneum. As the amino acids are to eventually be delivered to the outer layer of the skin, then the water holding capacity of these compounds at 32° C. is important.
The saturated solution is prepared as above by adding the amino acid to water (1 mL, 32° C.), whilst swirling. The total amino acid is weighed before adding to the water and the remaining amino acid so that the mass of compound used can be determined. The saturated solution (1 mL, 32° C.) is then transferred into the vial, again because of partial molar volume causing a change in volume by the addition of the amino acid to the water.
The temperature and % RH (% Relative Humidity) shown on the thermo-hygrometer are recorded every 30 minutes until the % RH remains constant. The temperature confirms that the temperature experienced by the sample is 32° C.

RHE tissues [8] = test: RHE irritation assessment Method 2: Mattek's MTT effective time (ET-50) assay; type: cell-based, human; settings: 10% w/v N-H-S
From the text: Method 1 was used to investigate the potential for alpha-hydroxylglycine (α-H-G) and L-homoserine (L-h-S) to cause skin irritation. The protocol is primarily designed and validated for single compounds rather than solutions. Therefore to provide further insight into the potential of N-hydroxyserine and N-hydroxylglycine to cause skin irritation a second protocol was investigated using Mattek's MTT effective time (ET-50) assay which is designed to test mixtures of compounds. In addition two commercially available amino acid related compound (L-serine and glycine) were selected and tested as comparators for N-hydroxyserine and N-hydroxylglycine. […] As a general guideline, the following groupings can be used in assigning expected in vivo irritancy responses based on the ET-50 results obtained: The irritation assessment of the solutions was performed using the protocol described below. Each of the test solutions; […] Damaged tissues were discarded. • (iii) The tissue were transferred into the assay medium and incubated at 37° C., 5% CO2 until the application of the test solutions; […] The working MTT solution was prepared using the following procedure: • (i) MTT concentrate was removed from the freezer and allowed to thaw. The concentrate was diluted with the MTT diluent solution (1 mL of concentrate to 4 mL of MTT diluent solution). • (ii) MTT solution from Step (i) was centrifuged at a g-force of 300 for 5 min to remove any particulates. • (iii) The supernatant of the MTT solution from Step (ii) was stored in the dark at 4° C. for a maximum period of 24 h and used as required. […] The plates were incubated for 3 h (+/−5 min) at 37° C., 5% CO2 and 95% humidified atmosphere. • (vi) The treated tissues were subsequently transferred into a new plate filled with 1 mL of extractant solution. • (vii) The plates were sealed using Parafilm® to stop evaporation and protected from light using foil before extract at 2-8° C. to minimise evaporation. • (viii) Following extraction the RHE tissue were removed from the wells and an additional 1 mL of extractant solution was added. Using a pipette the extraction solution was mixed and made visually homogenous. • (ix) The solution from Step (viii) was transferred in to n=3 wells (200 μL per well) using an automatic pipette of a 96 well plate and the optical density was measured at a wavelength of 570 nm.

RHE tissues [9] = test: RHE irritation assessment Method 1: SkinEthic Skin Irritation Test-42 bis assay (MTT), plus 24 h contact time; type: cell-based, human; settings: 42 min and 24 h exposure, 5 and 1% w/v α-H-G, 10 and 1% w/v L-h-S in water
From the text: The purpose of this experiment was to investigate the potential of alpha-hydroxyglycine (α-H-G) and L-homoserine (L-h-S) to cause skin irritation. The method was based on the validated SOP for the “The SkinEthic Skin Irritation Test-42 bis assay” in accordance to OECD guideline Test No. 439: In Vitro Skin Irritation. The protocol is provided in Section 1.2. Further details on the method can be found in the SkinEthic™ RHE SOP, Version 2.1 (July 2009), SkinEthic skin irritation test-42 bis test method for the prediction of acute skin irritation of chemicals: 42 minutes application+42 hours post-incubation. Available at: [http://ecvam.jrc.ec.europa.eu].
In addition, a further experiment was performed where the contact time of the test solution with the tissue was increased to 24 h. Following which point an MTT assay was used to determine the tissue viability and the test solutions potential to cause irritation.
The following steps were completed on receipt of the tissues: • (i) Wells of 6-well plates were filled with 1 mL growth culture medium. • (ii) Tissue were removed from their packaging, cleaned to remove the transport agarose and inspected for signs of damage; damaged tissues were discarded. • (iii) The tissue were transferred into the growth culture medium then incubated at 37° C., 5% CO2 until application of the test solution.
1.2.1.1.6 Applications of 5 and 1% w/v α-H-G and 10 and 1% w/v L-h-S and Controls • (i) 16 μL±0.5 μL of the test solutions (5% w/v α-hydroxyglycine (α-H-G) in water, 1% w/v α-hydroxyglycine (α-H-G) in water, 10% w/v L-homoserine (L-h-S) in water, 1% w/v L-homoserine (L-h-S) in water) and negative (PBS) and positive (5% SDS) controls were dispensed onto the top of the epidermal tissue, using positive displacement pipette. […]

ER (drug absorption enhancement factor) [1]: 12
Molecule: Nc1nc2c(ncn2COCCO)c(=O)[nH]1 [ACV, Acyclovir]

ER (drug absorption enhancement factor) [2]: 19
Molecule: O=C(O)Cc1ccccc1Nc1c(Cl)cccc1Cl [Diclofenac diethylamine]
Log P [3]: 0.85

ER (drug absorption enhancement factor) [4]: 15
Molecule: Cc1ncc([N+](=O)[O-])n1CCO [Metronidazole]
Log P [3]: −0.02

Molecule: O=[N+]([O-])O [conc. Nitric acid, Nitric acid]
ET-50 (hrs), general guideline examples (RHE tissues [5]; guideline groupings of the assay): <0.5 strong/severe, possible corrosive hrs

DRH [7]: 79.73% | DRH ([7]; listed as Hydroxyglycine): 79.7%
Molecule: NC(O)C(=O)O (stereo not drawn) [α-hydroxyglycine, 2-Amino-2-hydroxyacetic acid]
average percentage weight increase after 24 h at 40% RH [6]: particularly advantageous properties | ET-50 (exposure time to reduce viability to 50% of the control) (RHE tissues [8]; 1% w/v N-H-G in water, dosing periods 2, 6 and 24 h): < 24 h | expected in vivo irritancy from ET-50 (RHE tissues [8]; 1% w/v N-H-G, 10% w/v L-Serine, 10% w/v Glycine in water): non-irritant | skin irritation potential (viability below 50% of negative control = irritant) (RHE tissues [9]; listed as alpha-hydroxyglycine): non-irritants | skin irritation potential (viability below 50% of negative control = irritant) (RHE tissues [9]; listed as α-H-G): non-irritating

Molecule: Triton X-100 [1% Triton X-100]
ET-50 (hrs), general guideline examples (RHE tissues [5]): 4-12 moderate to mild hrs
